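A five-concentration, 48-hour dose response in 96-well plates underlies each endpoint, interpolated linearly between surrounding concentrations. GI50 = concentration required for 50% inhibition of growth. Definition used: TGI = concentration required for complete inhibition of growth.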
Experiments:
Assay in all cases: growth of human tumour cells (NCI), 48 h
[1] = system: SF-268 CNS
[2] = system: HL-60(TB) leukemia
[3] = system: SR leukemia
[4] = system: OVCAR-3 ovarian
[5] = system: OVCAR-5 ovarian
[6] = system: U251 CNS
[7] = system: RXF 393 renal
[8] = system: PC-3 prostate
[9] = system: A549 NSCLC
[10] = system: HCT-116 colon
[11] = system: 786-0 renal
[12] = system: RPMI-8226 leukemia
[13] = system: K-562 leukemia
[14] = system: HS 578T breast
[15] = system: SK-MEL-28 melanoma
[16] = system: CCRF-CEM leukemia
[17] = system: UACC-62 melanoma
[18] = system: MOLT-4 leukemia
[19] = system: SK-OV-3 ovarian
[20] = system: M14 melanoma
[21] = system: SF-295 CNS
[22] = system: SN12C renal
[23] = system: UO-31 renal
[24] = system: COLO 205 colon
[25] = system: MCF7 breast
[26] = system: SF-539 CNS
[27] = system: NCI/ADR-RES ovarian
[28] = system: HOP-92 NSCLC
[29] = system: KM12 colon
[30] = system: SK-MEL-5 melanoma
[31] = system: HT29 colon
[32] = system: SNB-19 CNS
[33] = system: A498 renal
[34] = system: HCT-15 colon
[35] = system: NCI-H226 lung
[36] = system: MDA-MB-435
[37] = system: UACC-257 melanoma
[38] = system: T-47D breast
[39] = system: NCI-H460 lung
[40] = system: NCI-H23 lung
[41] = system: TK-10 renal
[42] = system: OVCAR-8 ovarian
[43] = system: MDA-MB-231 breast
[44] = system: NCI-H522 lung
[45] = system: EKVX NSCLC
[46] = system: HOP-62 NSCLC
[47] = system: HCC-2998 colon
[48] = system: IGROV1 ovarian
[49] = system: BT-549 breast
[50] = system: SK-MEL-2 melanoma
[51] = system: OVCAR-4 ovarian
[52] = system: SNB-75 CNS
[53] = system: ACHN renal
[54] = system: SW-620 colon
[55] = system: DU-145 prostate
[56] = system: CAKI-1 renal
[57] = system: LOX IMVI melanoma
[58] = system: MALME-3M melanoma

## Cc1cccc(NC(=O)CC(=O)N2N=C(N3c4ccccc4Sc4ccccc43)CC2c2ccccc2)c1 (stereo unspecified)
[1]
  TGI: > 100 µM
[2]
  TGI: > 100 µM
[3]
  TGI: > 100 µM
[4]
  TGI: > 100 µM
[5]
  TGI: > 100 µM
[6]
  TGI: > 100 µM
[7]
  TGI: > 100 µM
[8]
  TGI: > 100 µM
[9]
  TGI: > 100 µM
[10]
  TGI: > 100 µM
[11]
  TGI: > 100 µM
[12]
  TGI: > 100 µM
[13]
  TGI: > 100 µM
[14]
  TGI: > 100 µM
[15]
  TGI: > 100 µM
[16]
  TGI: > 100 µM
[17]
  TGI: > 100 µM
[18]
  TGI: > 100 µM
[19]
  TGI: > 100 µM
[20]
  TGI: > 100 µM
[21]
  TGI: > 100 µM
[22]
  TGI: > 100 µM
[23]
  TGI: > 100 µM
[24]
  TGI: > 100 µM
[25]
  TGI: > 100 µM
[26]
  TGI: > 100 µM
[27]
  TGI: > 100 µM
[28]
  TGI: > 100 µM
[29]
  TGI: > 100 µM
[30]
  TGI: > 100 µM
[31]
  TGI: > 100 µM
[32]
  TGI: > 100 µM
[33]
  TGI: > 100 µM
[34]
  TGI: > 100 µM
[35]
  TGI: > 100 µM
[36]
  TGI: > 100 µM
[37]
  TGI: > 100 µM
[38]
  TGI: > 100 µM
[39]
  TGI: > 100 µM
[40]
  TGI: > 100 µM
[41]
  TGI: > 100 µM
[42]
  TGI: > 100 µM
[43]
  TGI: > 100 µM
[44]
  TGI: > 100 µM
[45]
  TGI: > 100 µM
[46]
  TGI: > 100 µM
[47]
  TGI: > 100 µM
[48]
  TGI: > 100 µM
[49]
  TGI: > 100 µM
[50]
  TGI: > 100 µM
[51]
  TGI: > 100 µM
[52]
  TGI: > 100 µM
[53]
  TGI: > 100 µM
[54]
  TGI: > 100 µM
[55]
  TGI: > 100 µM

## CC1(C)N=C(N)N=C(N)N1c1ccc(OCC(=O)Nc2cccc(S(=O)(=O)F)c2)c(Cl)c1
[1]
  TGI: > 41.3 µM
[2]
  TGI: > 100 µM
[56]
  TGI: > 100 µM
[3]
  TGI: > 100 µM
[4]
  TGI: > 76.8 µM
[5]
  TGI: > 100 µM
[6]
  TGI: > 100 µM
[7]
  TGI: > 100 µM
[8]
  TGI: > 76.6 µM
[9]
  TGI: > 100 µM
[10]
  TGI: > 100 µM
[11]
  TGI: > 42.5 µM
[12]
  TGI: > 100 µM
[13]
  TGI: > 100 µM
[14]
  TGI: > 100 µM
[15]
  TGI: > 100 µM
[16]
  TGI: > 100 µM
[18]
  TGI: > 100 µM
[19]
  TGI: > 100 µM
[20]
  TGI: > 100 µM
[21]
  TGI: > 73.5 µM
[22]
  TGI: > 100 µM
[23]
  TGI: > 100 µM
[24]
  TGI: > 100 µM
[25]
  TGI: > 43.5 µM
[26]
  TGI: > 100 µM
[27]
  TGI: > 100 µM
[28]
  TGI: > 100 µM
[57]
  TGI: > 100 µM
[29]
  TGI: > 95 µM
[30]
  TGI: > 91.9 µM
[31]
  TGI: > 100 µM
[32]
  TGI: > 100 µM
[58]
  TGI: > 19.9 µM
[34]
  TGI: > 100 µM
[35]
  TGI: 77.2 µM
[36]
  TGI: > 100 µM
[37]
  TGI: > 14.2 µM
[38]
  TGI: > 100 µM
[39]
  TGI: > 100 µM
[40]
  TGI: > 45.4 µM
[41]
  TGI: > 44.4 µM
[42]
  TGI: > 100 µM
[43]
  TGI: > 100 µM
[44]
  TGI: > 100 µM
[46]
  TGI: > 79.7 µM
[47]
  TGI: > 100 µM
[48]
  TGI: > 100 µM
[49]
  GI50: > 100 µM
  TGI: > 100 µM
[50]
  TGI: > 100 µM
[51]
  TGI: > 100 µM
[52]
  TGI: > 100 µM
[53]
  TGI: > 100 µM
[54]
  TGI: > 100 µM
[55]
  TGI: > 100 µM

Source: PubChem BioAssay (NCI)
